According to publication PMC3656252 (The Journal of Biological Chemistry, 2013):
No end group written: not given here.

Key:
DP8 [1] = assay: 1.7 milliunits of recombinant DP8 in assay buffer: 50 mM Tris, 100 mM NaCl, pH 8.0; settings: human, 37 °C, up to 24 h
DP9 [2] = assay: 1.7 milliunits of recombinant DP9 in assay buffer: 50 mM Tris, 100 mM NaCl, pH 8.0; settings: human, 37 °C, up to 24 h
DP9 [3] = settings: cited from earlier work
Source text: (§1) In vitro, both DP8 and DP9 cleave the well known DP4 substrates neuropeptide Y(1–36), glucagon-like peptide-1(7–36), glucagon-like peptide-2(1–33), and peptide YY(1–36) ([18], [19]). […] However, as DP8 and DP9 are intracellular enzymes, it is unlikely that these secreted substrates will be of physiological relevance in vivo. Clues for their in vivo roles come from studies blocking DP ...

DP8 [4] = settings: cited from earlier work
Source text: as §1

## AEVKKPAAAAAPGTAEKLSP
DP8 [1]
  not cleaved: nc (not cleaved) after 24 h
DP9 [2]
  not cleaved: nc (not cleaved) after 24 h

## APAEILNGKEISAQIR
DP8 [1]
  cleaved bond: P-A
DP9 [2]
  cleaved bond: P-A

## APGQLALFSVSDKTGLVEFAR
DP8 [1]
  cleaved bond: P-G
DP9 [2]
  cleaved bond: P-G

## APKFPDSVEELRAAG
DP8 [1]
  cleaved bond: P-K
DP9 [2]
  cleaved bond: P-K

## APLDLDKYVEIARLCK
DP8 [1]
  cleaved bond: P-L
DP9 [2]
  cleaved bond: P-L

## APSVPAAEPEYPKGIR
DP8 [1]
  cleaved bond: P-S, 1 h
DP9 [2]
  cleaved bond: P-S, 1 h

## APVLSKDSADIESILALNPR
DP8 [1]
  cleaved bond: P-V
DP9 [2]
  cleaved bond: P-V

## ASGANFEYIIAEKRGK
DP8 [1]
  not cleaved: nc (not cleaved) after 24 h
DP9 [2]
  not cleaved: nc (not cleaved) after 24 h

## ATAKGIAIGIDLGTTYSCVG
DP8 [1]
  not cleaved: nc (not cleaved) after 24 h
DP9 [2]
  not cleaved: nc (not cleaved) after 24 h

## DDEVDVDGTVEEDLGKSR
DP8 [1]
  not cleaved: nc (not cleaved) after 24 h
DP9 [2]
  not cleaved: nc (not cleaved) after 24 h

## EPAVYFKEQFLDGDGWTSR
DP8 [1]
  cleaved bond: P-A, 1 h
DP9 [2]
  cleaved bond: P-A, 1 h

## PPKKGGDGIKPPPIIGR
DP8 [1]
  cleaved bond: P-K
DP9 [2]
  cleaved bond: P-K

## SPADLPKSWDWRNVDG
DP8 [1]
  cleaved bond: P-A
DP9 [2]
  cleaved bond: P-A

## VSKPTLKEVVIVSATR
DP8 [1]
  not cleaved: nc (not cleaved) after 24 h
DP9 [2]
  not cleaved: nc (not cleaved) after 24 h

## glucagon-like peptide-1(7–36): well known DP4 substrate (HAEGTFTSDVSSYLEGQAAKEFIAWLVKGR; ends and bridges not checked; UniProt P01275 98-127, looked up)
DP9 [3]
  Cleavage by DP9 in vitro: cleave
DP8 [4]
  Cleavage by DP8 in vitro: cleave

## glucagon-like peptide-2(1–33): well known DP4 substrate (HADGSFSDEMNTILDNLAARDFINWLIQTKITD; Glucagon-like peptide 2; UniProt P01275 146-178, looked up)
DP9 [3]
  Cleavage by DP9 in vitro: cleave
DP8 [4]
  Cleavage by DP8 in vitro: cleave

## interferon-γ-inducible protein: chemokine, known DP4 substrate
DP8 [4]
  DP8 cleavage of chemokines in vitro: cleavage

## neuropeptide Y(1–36): well known DP4 substrate
DP9 [3]
  Cleavage by DP9 in vitro: cleave
DP8 [4]
  Cleavage by DP8 in vitro: cleave

## peptide YY(1–36): well known DP4 substrate
DP9 [3]
  Cleavage by DP9 in vitro: cleave
DP8 [4]
  Cleavage by DP8 in vitro: cleave

B1: interferon-inducible T cell α-chemoattractant: chemokine, known DP4 substrate (protein, UniProt O14625 22-94, looked up)
C-X-C motif chemokine 11: FPMFKRGRCLCIGPGVKAVKVADIEKASIMYPSNNCDKIEVIITLKENKGQRCLNPKSKQARLIIKKVERKNF
DP8 [4]
  DP8 cleavage of chemokines in vitro: cleavage
